Laboratory results as given in PMC2441954, “Phase I pharmacokinetic and pharmacodynamic study of the prenyl transferase inhibitor AZD3409 in patients with advanced cancer” (British Journal of Cancer, 2008).
Like-named read-outs stand apart in the source and are kept apart here.

Legend:
[1] = Plasma pharmacokinetics (LC-MS/MS, noncompartmental) in phase I patients; format: in vivo, human; settings: for Cmax / AUC: human, plasma, oral; for AUC: read-out: AUC0−τ
Experimental: Pharmacokinetic studies were performed in all patients. Ethylenediaminetetraacetic acid blood samples were collected during the first cycle: on day 1 before the first drug intake and 0.5, 1, 2, 4, 6, 8, 12 and 24 h after administration; on days 3, 8 and 15 before the morning drug intake and 2 h after administration; and on day 22 before the morning drug intake and 0.5, 1, 2, 4, 6, 8, 12 and 24 h after administration. Samples were immediately put on ice and centrifuged at 4°C for 10 min at 1500 g. The resulting plasma was stored at −70°C until analysis. Plasma samples of the last three patients were not measured as the study was stopped before analysis.
The total plasma concentrations of AZD3409 ester and AZD3409 acid were determined by LC–MS/MS. The plasma samples were treated with dithiothreitol to reduce any disulphide bonds. The sample pretreatment was based on protein precipitation with acidic acetonitrile. Isotopically labelled analogues were used as internal standards. The method has been validated regarding selectivity, accuracy, precision and stability in human plasma. The lower limit of quantification was 3 ng ml^−1 for both AZD3409 ester and AZD3409 acid, with a 50 μl sample volume.
The following PK parameters were determined, either by direct observation or by noncompartmental analysis (WinNonlin, version 5.0.1; Pharsight, Mountain View, CA, USA): the minimal plasma concentration (Cmin), the maximal plasma concentration (Cmax), the area under the curve within one dosing interval (AUC0−τ) and total plasma clearance (Cl/F). Correlations between dose and Cmax levels and between dose and AUC0−τ were analysed on day 1 using the nonparametric Spearman's ρ (Rs) correlation test. Accumulation was tested with an exact Wilcoxon's rank paired signed test. Linear measures mixed effects models were constructed with SAS (SAS Institute Inc., Cary, NC, USA) to determine the effect of the dose on the trough plasma concentrations of both metabolites. The daily dose, time (days), gender and age were considered to be a fixed effect, and the patient variable was considered to be a random effect. Owing to the distribution of the trough plasma concentration log transformation was applied.

FTase = target: T1, FTase (Homo sapiens, UniProt P49356); assay: FTase activity in PBMC lysates of patients (lamin B or K-Ras substrate), PK/PD Emax model; format: in vivo
T1 construct: endogenous in cells; host or cells: peripheral blood mononuclear cells (PBMCs) of treated patients, lysed
Experimental: Prior to and 2 h after intake on days 1, 2 (only predose), 8 and 22, whole-blood samples of 22.5 ml were collected in heparinised tubes for FTase activity determination in peripheral blood mononuclear cells (PBMCs). Within 30 min, the PBMC fraction was isolated using Accuspin tubes (Sigma). The cell pellet was resuspended in 100 μl lysis buffer (PBS containing 1% (v/v) Triton X-100, 0.5% (w/v) sodium deoxycholate, 0.1% (w/v) sodium dodecylsulphate and 1% (v/v) aprotinin) and stored at −70°C.
FTase activity was measured by adding 5 μl of PBMC lysate, 5 μl of lysis buffer and 10 μl of water to each well. The lysates were preincubated for 10 min prior to the addition of 20 μl of substrate solution (either lamin B or K-Ras). The reaction was initiated by the addition of 10 μl of radiolabelled farnesylpyrophosphate (fpp). The wells were incubated for 40 min at 37°C. The reaction was stopped by the addition of 100 μl of 1.5 M HCl in ethanol. The wells were stored at 4°C for 1 h and then processed using the Tomtec Harvester 96. The filter plates were dried at 37°C for 15 min, 0.35 μl MicroScint was added to each filter well and the radioactivity was counted. Each lysate was analysed in triplicate. Blanks consisted of the same reaction mixture without the substrate.
Linear mixed effects models were constructed to determine the effect of time on the enzyme activity levels. In these models, the daily dose, number of applications, time (days), measurement pre- or postdrug intake, gender and age were considered to be a fixed effect, and the patient variable was considered to be a random effect. Owing to the distribution of the response variables, square root variables were applied. Statistical analysis was performed with SAS. To determine the correlation of the dose level and the enzyme inhibition, a baseline was added to the described models.
Pharmacokinetic-pharmacodynamic correlations between the active acid metabolite and decrease in FTase activity were fitted with WinNonlin software. Only patients with a basal FTase activity that was higher than 10 pg fpp per mg protein per min were included in the model. This cutoff value was arbitrary and was chosen based on the available data (lamin B; mean: 28.0, SD: 14.2, median: 27.8, 25% percentile: 19.1 and K-Ras; mean: 29.3, SD: 17.8, median: 25.6, 25% percentile: 16.7). The decision to set a minimum baseline FTase activity implicates that the model can only be used for patients with a minimum FTase activity of 10 pg fpp per mg protein per min.

[2] = 500 mg once daily, day 1, dose 500 (once daily), N=3, mean (SD)
[3] = 500 mg once daily, day 22, dose 500 (once daily), N=2, absolute values
[4] = 750 mg b.i.d., day 1, dose 750 b.i.d., N=8, mean (SD)
[5] = 750 mg b.i.d., day 22, dose 750 b.i.d., N=3, mean (SD)
[6] = 1000 mg once daily, day 1, dose 1000 (once daily), N=3, mean (SD)
[7] = 1000 mg once daily, day 22, dose 1000 (once daily), N=3, mean (SD)
[8] = 1250 mg b.i.d., day 1, dose 1250 b.i.d., N=6, mean (SD)
[9] = 1250 mg b.i.d., day 22, dose 1250 b.i.d., N=4, mean (SD)
[10] = 1500 mg b.i.d., day 1, dose 1500 b.i.d., N=2, absolute values
[11] = 1750 mg b.i.d., day 1, dose 1750 b.i.d., N=4, mean (SD)
[12] = 1750 mg b.i.d., day 22, dose 1750 b.i.d., N=1

## CSCC[C@H](NC(=O)c1cc(NC[C@@H]2C[C@H](S)CN2)ccc1CCc1ccc(F)cc1)C(=O)O [AZD3409 acid]
[1]; cycle 1, plasma
  mean time at which Cmax was reached: 2.7 h
[1]; day 1
  Spearman correlation (Rs) between dose and AUC: 0.52
  Spearman correlation (Rs) between dose and Cmax: 0.43
[1]; day 22, dose 500 (once daily), N=2, absolute values
  Cl/F: [465–488] l h^−1
[1]; day 22, dose 750 b.i.d., N=3, mean (SD)
  Cl/F: 473 (155) l h^−1
[1]; day 22, dose 1000 (once daily), N=3, mean (SD)
  Cl/F: 710 (148) l h^−1
[1]; day 22, dose 1250 b.i.d., N=4, mean (SD)
  Cl/F: 785 (311) l h^−1
[1]; day 22, dose 1750 b.i.d., N=1
  Cl/F: 1706 L/h
[1]; dose 500 (once daily), N=2, absolute values
  Ratio AUC0−τ day 22/day 1: [2.07–10.1]
[1]; dose 750 b.i.d., N=3, mean (SD)
  Ratio AUC0−τ day 22/day 1: 9.29 (11.2)
[1]; dose 1000 (once daily), N=3, mean (SD)
  Ratio AUC0−τ day 22/day 1: 2.10 (1.19)
[1]; dose 1250 b.i.d., N=4, mean (SD)
  Ratio AUC0−τ day 22/day 1: 1.95 (1.05)
[1]; dose 1750 b.i.d., N=1
  Ratio AUC0−τ day 22/day 1: 1.23
[1]; [2]
  Cmax: 33.6 ng/mL
  AUC: 160 ng·h/mL
[1]; [3]
  Cmax: 95.9 to 111 ng/mL
  AUC: 712 to 775 ng·h/mL
[1]; [4]
  Cmax: 93.8 ng/mL
  AUC: 468 ng·h/mL
[1]; [5]
  Cmax: 138 ng/mL
  AUC: 934 ng·h/mL
[1]; [6]
  Cmax: 78.6 ng/mL
  AUC: 512 ng·h/mL
[1]; [7]
  Cmax: 106 ng/mL
  AUC: 904 ng·h/mL
[1]; [8]
  Cmax: 119 ng/mL
  AUC: 677 ng·h/mL
[1]; [9]
  Cmax: 168 ng/mL
  AUC: 1230 ng·h/mL
[1]; [10]
  Cmax: 83.5 to 148 ng/mL
  AUC: 458 to 749 ng·h/mL
[1]; [11]
  Cmax: 140 ng/mL
  AUC: 751 ng·h/mL
[1]; [12]
  Cmax: 165 ng/mL
  AUC: 466 ng·h/mL
[1]; twice daily dosing levels
  mean trough total AZD3409 acid concentrations: 36.3 to 81.9 ng/mL
FTase; Emax model for lamin B
  plasma concentration at which 90% of the maximal biological effect is reached: approximately 100 ng ml^−1
FTase; Emax model, lamin B substrate, PBMC lysate, day 1, 2 h after intake, read-out: EC50 (plasma concentration at 50% of maximal FTase inhibition) (converted)
  EC50: 18.8 nM
FTase; human, Emax model, lamin B substrate, PBMC lysate, day 1, 2 h after intake, vs AZD3409 acid plasma concentration, read-out: maximal effect (Emax), maximal FTase inhibition
  Emax: 49 ± 11%
FTase; twice daily dosing levels, Emax model lamin B
  share of the maximally achievable FTase inhibition at mean trough concentrations: at least 75%

## CSCC[C@H](NC(=O)c1cc(NC[C@@H]2C[C@H](SC(=O)c3cccnc3)CN2)ccc1CCc1ccc(F)cc1)C(=O)OC(C)C [AZD3409]
[1]; after oral administration, rapidly metabolised in the gut and plasma to AZD3409 ester
  appearance of parent drug in blood: does not appear in the blood
FTase; each day, lamin B and K-Ras substrates, mixed effects model
  degree of FTase inhibition in PBMCs after intake vs prior to intake: significantly higher than prior to intake
